Experimental data: patent US20120095019A1 (priority 2010, published 2012)
Values joined by “and” are separate entries in the source; they are usually repeats but may differ in a detail not shown here. Equal values may be shown once. “Also recorded” adds a separate entry of the source.

Experiments:
[1] = 2-way crossover study of single-dose betrixaban alone and following 5 days of ketoconazole in healthy subjects (plasma/urine PK, safety); type: in vivo, human; conditions: for Cmax: ketoconazole Cmax
From the text: Blood and urine samples were obtained at specific time intervals after dosing for pharmacokinetic evaluations.
For each subject, the total duration of the study was up to 11 weeks (4 weeks predose, 1 week in the study unit on 2 occasions separated by a 12- to 14-day washout period, and 3 weeks after the last dose until the termination visit).
Safety was monitored by adverse event monitoring, clinical laboratory testing (hematology, serum chemistry, and urinalysis), vital sign measurements (oral temperature, respiratory rate, pulse rate, and systolic and diastolic blood pressure), electrocardiograms, and physical examinations.

[2] = 3-period crossover study of betrixaban and digoxin alone and in combination for 7 days in healthy subjects; type: in vivo, human
From the text: For each period, subjects reported to the clinical research unit on the day prior to Day 1 and remained there until Day 8 (at least until the last blood sample collection). The total duration of the study for each subject was 14 weeks: up to 4 weeks predose, approximately 1 week in the study unit on 3 occasions (with each treatment period separated by an approximate 2-week washout [i.e., 12 to 14 days]), and up to 3 weeks after the last dose until the Termination Visit. Serial blood samples and interval urine collections were obtained over the last dosing interval (Day 7 to 8) during each study period. Routine safety laboratory data was obtained at baseline during and after drug administration; additional safety laboratory and clinical data were collected.
All doses were taken under fasting conditions (no food starting from the midnight before dosing and continuing until 2 hours postdose).
Safety assessments included electrocardiogram (ECG) intervals, vital signs, laboratory parameters, and adverse events (AEs).
Mean and individual concentration-versus-time curves were plotted. […]
The 90% confidence intervals (CIs) for the difference in least squares means (test-reference, where test=drugs in combination and reference=drugs alone) was calculated for each parameter. […]

SMILES | ketoconazole CL/F, mean (SD) ([1]; Day 1) | ketoconazole trough concentration, least squares geometric mean ([1]; Day 1 12 hours) [ng/mL] | ketoconazole trough concentration, least squares geometric mean ([1]; Day 1 predose) [ng/mL] | ketoconazole CL/F, mean (SD) ([1]; Day-1) | ketoconazole trough concentration, least squares geometric mean ([1]; Day-1 predose) [ng/mL] | increased exposure of ketoconazole [Cmax and AUC(0-12)] when given with betrixaban ([1]; human, in vivo) | Tmax ([1]; human, plasma, oral) [h] | Tmax ([1]; human, plasma, oral, 200 mg) [h] | AUC(0-t) ([1]; human, plasma, oral, 200 mg, ketoconazole AUC(0-12), geometric LS mean, Treatment R: ketoconazole 200 mg alone) [ng·h/mL] | Cmax ([1]; human, plasma, oral, 200 mg, geometric LS mean, Treatment R: ketoconazole 200 mg alone) [ng/mL] | Cmax ([1]; human, plasma, oral, 200 mg, mean (SD), Day-1) [ng/mL] | AUC(0-t) ([1]; human, plasma, oral, 200 mg, ketoconazole plasma AUC(0-12), mean (SD), Day-1) [ng·h/mL] | concentration at 12 h ([1]; human, plasma, oral, 200 mg, Day-1 12 hours) [ng/mL] | AUC(0-t) ([1]; human, plasma, oral, ketoconazole AUC(0-12), geometric LS mean, Treatment T: ketoconazole 200 mg co-administered with 40-mg betrixaban) [ng·h/mL] | Cmax ([1]; human, plasma, oral, geometric LS mean, Treatment T: ketoconazole 200 mg co-administered with 40-mg betrixaban) [ng/mL] | Cmax ([1]; human, plasma, oral, mean (SD), Day 1 (day of betrixaban administration)) [ng/mL] | effect of co-administration of betrixaban on digoxin PK ([2]; 7 days) | Tmax ([2]; human, plasma, oral, digoxin median tmax, second value of pair (digoxin alone by order)) [h]
CC(=O)N1CCN(c2ccc(OCC3COC(Cn4ccnc4)(c4ccc(Cl)cc4Cl)O3)cc2)CC1 (stereo not drawn) [ketoconazole] | 5.717 (2.373) L/h | 769 | 1030 | 7.954 (7.110) L/h | 1250 | 21-22% and ~20% | 2 | 2 | 30900 | 5260 | 5900 | 35300 | 697 | 37300 | 6420 | 6620 |  | 
C[C@H]1O[C@@H](O[C@H]2[C@@H](O)C[C@H](O[C@H]3[C@@H](O)C[C@H](O[C@H]4CC[C@@]5(C)[C@H](CC[C@@H]6[C@@H]5C[C@@H](O)[C@]5(C)[C@@H](C7=CC(=O)OC7)CC[C@]65O)C4)O[C@@H]3C)O[C@@H]2C)C[C@H](O)[C@@H]1O [digoxin] |  |  |  |  |  |  |  |  |  |  |  |  |  |  |  |  | no impact; also recorded: no effect | 1.01
